Results as given in patent US20090137686A1, “Treatment of Ophthalmic Diseases” (priority 2005, published 2009).

System: IFNγ secretion in whole blood stimulated with heat-killed Staphylococcus epidermidis
Experiment: in vitro whole blood assay stimulated with Staphylococcus epidermidis, measuring IFNγ
Assay type: cell-based
Conditions: 24 hours; for inhibitory activity of IFNg secretion resulting from Staphylococcus epidermidis stimulation: IFNγ by ELISA; for IFNγ concentration: at 62.5 nMol test compound, cut from 4500 pg/ml; for inhibition of IFNγ: lowest concentration of 62.5 nMol
Text: The following experimental work illustrates the invention. This involves an in vitro whole blood assay stimulated with Staphylococcus epidermidis, measuring IFNγ. IFNγ as a key mediator in pathological processes in ocular inflammatory disease, namely age-related macular degeneration (Penfold et al, 2002) and proliferative vitreoretinopathy (El-Ghrably et al, 2001). 1:100 diluted heat-killed Staphylococcus epidermidis in conjunction with various concentrations of test compound (in a stock DMSO solution) was added to a 100-fold volume of whole blood. After 24 hours, whole blood was diluted 1:4 and IFNγ was measured by enzyme-linked immuno-absorptive assay.

For `CC(C(O)c1ccc(O)cc1)N1CCC(Cc2ccccc2)CC1` (racemic) [ifenprodil erythro racemate, ifenprodil], the “inhibitory activity of IFNg secretion resulting from Staphylococcus epidermidis stimulation” value was “strong inhibitory activity”, the IFNγ concentration was 1500 pg/mL and the “inhibition of IFNγ” value was 66%.

`CC(NCCc1ccc(O)cc1)C(O)c1ccc(O)cc1` (racemic) [ritodrine racemate, ritodrine] was tested, and the “inhibitory activity of IFNg secretion resulting from Staphylococcus epidermidis stimulation” value was “strong inhibitory activity”, the IFNγ concentration was 1500 pg/mL and the “inhibition of IFNγ” value was 66%.
